Assay results taken from US8343490B2, “Monoclonal antibody SC104 and derivative thereof specifically binding to a sialyltetraosyl carbohydrate as a potential anti-tumor therapeutic agent” (Cephalon Australia Pty Ltd, priority 2004, dated 2013).
Read-outs that look alike come from different tables or passages of the source.

Experiments:
C170 xenografts [1] = type: in vivo
Experimental: (§1) Prevention model. The colorectal tumour cell line, C170 was maintained in serial passage in nude mice. For therapy the mice were sacrificed and the tumours excised. The tumour was finely minced and […] pieces were implanted, under anaesthetic, subcutaneously into 30 male mice which had been randomly allocated to 4 experimental groups.
Mice were explanted with 3 mm^3 pieces of C170 xenografts. Groups of mice were treated with 5-FU/leucovorin (12.5 mg/Kg) by intravenous infusion on days 1, 3, 5, 7 and 28. On the same days mice were also injected intraperitonealy with 0.2 mg of SC104 mab. Control mice received either SC104 alone or control mouse IgG antibody with 5-FU/leucovorin. Tumour size was measured by callipers and tumour cross sectional area calculated on days 7, 9, 12, 14 and 16. Animals were weighed to assess the toxicity of treatment. At the termination of the experiment tumours were weighed to assess anti-tumour efficacy.

C170 xenografts [2] = type: in vivo; conditions: day 6
C170 xenografts [3] = assay: C170 xenograft therapeutic model; type: in vivo, nude mice; conditions: administered therapeutically, after C170 xenograft implantation; FIG. 27
Experimental: as §1, with “Therapeutic” for “Prevention”
Mice were explanted with 3 mm^3 pieces of C170 xenografts. […] On the same days mice were also injected intraperitonealy with 0.2 mg of SC104 mab. Control mice received either SC104 alone or control mouse IgG antibody with 5FU/leucovorin. Tumour size was measured by callipers and tumour cross sectional area calculated on days 12, 16, 19 and 23.

C170 cells = assay: In vitro inhibition of cell growth in combination with cytotoxic drugs, MTS; type: cell-based; conditions: 5 days, FIG. 25
Experimental: 1×10^3 colorectal C170 cells were aliquoted into individual wells of a flat bottomed 96-well plate and left to adhere overnight at 37° C. The following day the cells were treated with cisplatin, mitomycin C, oxaliplatin and tamoxifen at final concentrations of 10, 3, 1, 0.3, 0.1 and 0 μM. Against each concentration of drug the following concentrations of SC104 were titrated: 10, 3, 1, 0.3 and 0 μg/ml. As a negative control 791T/36 at concentrations 100, 30, 10, 3 and 0 μg/ml, was titrated against each concentration of drug used. Duplicate wells were used. Cells were left for 5 days at 37° C. prior to the addition of MTS reagent to each well and optical density reading at 490 nm.

5-FU/leucovorin [reference compound]
inhibition of tumour growth of freshly explanted tumours (C170 xenografts [1]; SC104 200 μg/dose ip, 5-FU/leucovorin at maximum tolerated dose, FIG. 26a): 50%

O=c1[nH]cc(F)c(=O)[nH]1 [5-FU, 5-Fluorouracil, reference compound]
inhibition of tumour growth (C170 xenografts [2]): 62% | survival of mice (C170 xenografts [1]; Log Rank, FIG. 26b): significant improvement of survival | inhibition of tumour growth (C170 xenografts [1]; day 9): 40% | inhibition of tumour growth (C170 xenografts [1]; day 12): 45% | inhibition of tumour growth (C170 xenografts [1]; day 14): 58% | inhibition of tumour growth (C170 xenografts [3]): neither 5FU nor SC104 alone significantly inhibited growth | additive killing in combination with SC104 (C170 cells): additive killing

N.N.[Cl][Pt][Cl] [cisplatin]
additive killing in combination with SC104 (C170 cells): additive killing

CO[C@@]12[C@H](COC(N)=O)C3=C(C(=O)C(C)=C(N)C3=O)N1C[C@@H]1N[C@@H]12 [mitomycin C, Mitomycin C]
additive killing in combination with SC104 (C170 cells): additive killing

O=C1[O][Pt]2([NH][C@@H]3CCCC[C@H]3[NH]2)[O]C1=O [oxaliplatin]
additive killing in combination with SC104 (C170 cells): No additive effect

CC/C(=C(\c1ccccc1)c1ccc(OCCN(C)C)cc1)c1ccccc1 [tamoxifen]
additive killing in combination with SC104 (C170 cells): additive killing
